Test [1] addresses T1, CDGSH iron-sulfur domain-containing protein 2 (Homo sapiens, UniProt Q8N5K1).
T1 sequence (Q8N5K1 whole entry): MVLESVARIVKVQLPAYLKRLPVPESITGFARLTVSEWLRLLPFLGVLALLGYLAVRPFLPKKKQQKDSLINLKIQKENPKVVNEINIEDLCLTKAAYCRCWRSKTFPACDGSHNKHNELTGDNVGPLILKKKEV
In words: Binding affinity to recombinant human N-terminal His6-tagged NAF1 expressed in Escherichia coli by scintillation proximity assay. (Scintillation proximity formats need no separation of bound from free tracer.)

Test [2] concerns the target T2, CDGSH iron-sulfur domain-containing protein 2 (Homo sapiens) (UniProt Q8N5K1).
T2 sequence (whole entry): T1 sequence (Q8N5K1 whole entry)
In words: Binding affinity to NAF1 (unknown origin) expressed in human HepG2 cells assessed as inhibition of mitochondrial respiration at 30 uM. It counts as cell-based.

For test [3], the target named is T2, CDGSH iron-sulfur domain-containing protein 2 (Homo sapiens). In words: Binding affinity to NAF1 in human HepG2 cells assessed as inhibition of mitochondrial respiration at 30 uM. The format is cell-based.
The target is the same in test [4]. In words: Binding affinity to NAF1 (unknown origin) expressed in human HepG2 cells assessed as increase in mitochondrial respiration at 30 uM relative to wild-type cells. The format is cell-based.

The values below come from ChEMBL document CHEMBL4368935, “Binding of thiazolidinediones to the endoplasmic reticulum protein nutrient-deprivation autophagy factor-1” (Bioorg Med Chem Lett, 2019).

In general, IC50 refers to the midpoint of a concentration-inhibition curve.

Active and inactive are the calls of the source. The rule behind the calls is not given here.

Take `CN(CCOc1ccc(CC2SC(=O)NC2=O)cc1)c1ccccn1` (stereo not given) [ROSIGLITAZONE]: the IC50 in test [1] is 2.29 µM. Besides, the inhibition result in test [2] and in test [3] was “Active” each time.
For `CC(C)(C)c1cc(CC2SC(=O)N=C2O)cc(C(C)(C)C)c1O` (stereo not given), the IC50 in test [1] was 29.8 µM. For the same compound, the inhibition entry in test [2] and in test [3] was “Active” each time.
As to `CCc1ccc(CCOc2ccc(CC3SC(=O)NC3=O)cc2)nc1` (stereo not given) [PIOGLITAZONE], the IC50 in test [1] came to 4.8 µM. Moreover, the inhibition entry in test [2] and in test [3] was “Active” each time. For the same compound, the Activity in test [4] was 13%.
